In patent US6358885B1, “Substituted phenylheterocyclic herbicides” (Mississippi State University, priority 1992, dated 2002):

Tests used:
barley [1] = test: Test B preemergence/postemergence greenhouse plant response rating 0 to 10; assay type: in vivo, Hordeum vulgare; conditions: for Plant response rating, Barley: 0 to 10 scale
Summary of the method: (§1)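 Planted seeds are treated preemergence with compound dissolved in a non-phytotoxic solvent, while postemergence applications go onto plants of two to eighteen cm. Plants stay in the greenhouse twelve to sixteen days and are then rated visually relative to controls.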

blackgrass = test: as above; assay type: in vivo, Alopecurus myosuroides; conditions: for Plant response rating, Blackgrass: 0 to 10 scale
Summary of the method: as §1

cheatgrass = test: as above; assay type: in vivo, Bromus secalinus; conditions: for Plant response rating, Cheatgrass: 0 to 10 scale
Summary of the method: as §1

crabgrass = test: as above; assay type: in vivo, Digitaria spp.; conditions: for Plant response rating, Crabgrass: 0 to 10 scale
Summary of the method: as §1

giant foxtail = test: as above; assay type: in vivo, Setaria faberii; conditions: 0 to 10 scale
Summary of the method: as §1

lambsquarters [2] = test: as above; assay type: in vivo, Chenopodium album; conditions: 0 to 10 scale
Summary of the method: as §1

rape = test: as above; assay type: in vivo, Brassica napus; conditions: 0 to 10 scale
Summary of the method: as §1

soybean [3] = test: as above; assay type: in vivo, Glycine max; conditions: 0 to 10 scale
Summary of the method: as §1

velvetleaf = test: as above; assay type: in vivo, Abutilon theophrasti; conditions: 0 to 10 scale
Summary of the method: as §1

purple nutsedge = test: as above; assay type: in vivo, Cyperus rotundus; conditions: 0 to 10 scale
Summary of the method: as §1

barley [4] = test: Test C preemergence/postemergence greenhouse plant response rating 0 to 100; assay type: in vivo, Hordeum vulgare; conditions: POSTEMERGENCE; for Plant response rating Barley Igri: 0 to 100 scale
From the text: (§2) The compounds evaluated in this test were formulated in a non-phytoxic solvent and applied to the soil surface before plant seedlings emerged (preemergence application), to water that covered the soil surface (flood application), and to plants that were in the one-to-four leaf stage (postemergence application). A sandy loam soil was used for the preemergence and postemergence tests, while a silt loam soil was used in the flood test. Water depth was approximately 2.5 cm for the flood test and was maintained at this level for the duration of the test. Plant species in the preemergence and postemergence tests consisted of barley (Hordeum vulgare), bedstraw (Galium aparine), blackgrass (Alopecurus myosuroides), chickweed (Stellaria media), corn (Zea mays), cotton (Gossypium hirsutum), crabgrass (Digitaria sanguinalis), downy brome (Bromus tectorum), giant foxtail (Setaria faberii), lambsquarters (Chenopodium album), morningglory (Ipomoea hederacea), pigweed ([…]), rape (Brassica napus), ryegrass (Lolium multiflorum), sorghum (Sorghum bicolor), soybean (Glycine max), speedwell (Veronica persica), sugar beet (Beta vulgaris), velvetleaf (Abutilon theophrasti), wheat (Triticum aestivum), wild buckwheat (Polygonum convolvulus), and wild oat (Avena fatua). All plant species were planted one day before application of the compound for the preemergence portion-of this test. Plantings of these species were adjusted to produce plants of appropriate size for the post-emergence portion of the test. […] All plant species were grown using normal greenhouse practices. Visual evaluations of injury expressed on treated plants, when compared to untreated controls, were recorded approximately fourteen to twenty one days after application of the test compound. […] A dash (-) response means no test result.

chickweed = test: as above; assay type: in vivo, Stellaria media; conditions: POSTEMERGENCE; for Plant response rating, Chickweed: 0 to 100 scale
From the text: as §2

lambsquarters [5] = test: as above; assay type: in vivo, Chenopodium album; conditions: POSTEMERGENCE; for Plant response rating Lambsquarters: 0 to 100 scale
From the text: as §2

pigweed = test: as above; assay type: in vivo, Amaranthusretroflexus; conditions: POSTEMERGENCE; for Plant response rating Pigweed: 0 to 100 scale
From the text: as §2

ryegrass = test: as above; assay type: in vivo, Lolium multiflorum; conditions: POSTEMERGENCE; for Plant response rating Ryegrass: 0 to 100 scale
From the text: as §2

soybean [6] = test: as above; assay type: in vivo, Glycine max; conditions: POSTEMERGENCE; for Plant response rating, Soybean: 0 to 100 scale
From the text: as §2

sugar beet = test: as above; assay type: in vivo, Beta vulgaris; conditions: POSTEMERGENCE; for Plant response rating, Sugar beet: 0 to 100 scale
From the text: as §2

wild buckwheat = test: as above; assay type: in vivo, Polygonum convolvulus; conditions: POSTEMERGENCE; for Plant response rating, Wild buckwheat: 0 to 100 scale
From the text: as §2

CC(C)COc1cc(-c2nn3c(c2Cl)CCCC3)c(F)cc1Cl [Compound 30]
3: Plant response rating (0 to 10 scale), Crabgrass (crabgrass; POSTEMERGENCE, Rate 50 g/ha) | Plant response rating, Rape (rape; Rate 200 g/ha, PREEMERGENCE)
7: Plant response rating, Cheatgrass (cheatgrass; POSTEMERGENCE, Rate 200 g/ha) | Plant response rating, Giant foxtail (giant foxtail; PREEMERGENCE, Rate 50 g/ha) | Plant response rating, Soybean (soybean [3]; POSTEMERGENCE, Rate 50 g/ha) | Plant response rating, Velvetleaf (velvetleaf; POSTEMERGENCE, Rate 50 g/ha)
10: Plant response rating, Lambsquarter (lambsquarters [2]; POSTEMERGENCE, Rate 50 g/ha) | Plant response rating, Lambsquarter (lambsquarters [2]; Rate 200 g/ha, POSTEMERGENCE) | Plant response rating, Lambsquarter (lambsquarters [2]; Rate 200 g/ha, PREEMERGENCE) | Plant response rating, Velvetleaf (velvetleaf; Rate 200 g/ha, POSTEMERGENCE) | Plant response rating, Velvetleaf (velvetleaf; Rate 200 g/ha, PREEMERGENCE) | Plant response rating (0 to 100), Chickweed (chickweed; Rate 4 g/ha)
20: Plant response rating (0 to 100), Chickweed (chickweed; Rate 16 g/ha) | Plant response rating (0 to 100), Ryegrass (ryegrass; Rate 4 g/ha) | Plant response rating (0 to 100), Soybean (soybean [6]; Rate 16 g/ha)
40: Plant response rating (0 to 100), Ryegrass (ryegrass; Rate 16 g/ha)
9: Plant response rating, Crabgrass (crabgrass; Rate 200 g/ha, PREEMERGENCE) | Plant response rating, Rape (rape; Rate 200 g/ha, POSTEMERGENCE)
90: Plant response rating Lambsquarters (lambsquarters [5]; 62 g/ha)
6: Plant response rating, Barley (barley [1]; POSTEMERGENCE, Rate 200 g/ha) | Plant response rating (0 to 10 scale), Cheatgrass (cheatgrass; POSTEMERGENCE, Rate 50 g/ha) | Plant response rating, Crabgrass (crabgrass; PREEMERGENCE, Rate 50 g/ha)
5: Plant response rating (0 to 10 scale), Barley (barley [1]; POSTEMERGENCE, Rate 50 g/ha) | Plant response rating (0 to 10 scale), Blackgrass (blackgrass; POSTEMERGENCE, Rate 50 g/ha) | Plant response rating, Blackgrass (blackgrass; POSTEMERGENCE, Rate 200 g/ha) | Plant response rating, Giant foxtail (giant foxtail; Rate 200 g/ha, POSTEMERGENCE) | Plant response rating, Rape (rape; POSTEMERGENCE, Rate 50 g/ha) | Plant response rating, Velvetleaf (velvetleaf; PREEMERGENCE, Rate 50 g/ha) | Plant response rating, Nutsedge (purple nutsedge; Rate 200 g/ha, POSTEMERGENCE)
70: Plant response rating Barley Igri (barley [4]; 250 g/ha) | Plant response rating, Chickweed (chickweed; 250 g/ha) | Plant response rating (0 to 100), Lambsquarters (lambsquarters [5]; Rate 16 g/ha) | Plant response rating (0 to 100), Wild buckwheat (wild buckwheat; Rate 16 g/ha)
30: Plant response rating (0 to 100), Barley Igri (barley [4]; Rate 4 g/ha) | Plant response rating (0 to 100), Barley Igri (barley [4]; Rate 16 g/ha)
2: Plant response rating, Barley (barley [1]; Rate 200 g/ha, PREEMERGENCE) | Plant response rating, Crabgrass (crabgrass; POSTEMERGENCE, Rate 200 g/ha) | Plant response rating, Soybean (soybean [3]; Rate 200 g/ha, POSTEMERGENCE) | Plant response rating, Soybean (soybean [3]; Rate 200 g/ha, PREEMERGENCE) | Plant response rating, Nutsedge (purple nutsedge; POSTEMERGENCE, Rate 50 g/ha)
4: Plant response rating, Cheatgrass (cheatgrass; Rate 200 g/ha, PREEMERGENCE) | Plant response rating, Giant foxtail (giant foxtail; POSTEMERGENCE, Rate 50 g/ha)
100: Plant response rating Lambsquarters (lambsquarters [5]; 250 g/ha) | Plant response rating Pigweed (pigweed; 62 g/ha) | Plant response rating Pigweed (pigweed; 250 g/ha) | Plant response rating (0 to 100), Pigweed (pigweed; Rate 4 g/ha) | Plant response rating (0 to 100), Pigweed (pigweed; Rate 16 g/ha) | Plant response rating, Sugar beet (sugar beet; 62 g/ha) | Plant response rating, Sugar beet (sugar beet; 250 g/ha) | Plant response rating (0 to 100), Sugar beet (sugar beet; Rate 16 g/ha) | Plant response rating, Wild buckwheat (wild buckwheat; 250 g/ha)
80: Plant response rating Ryegrass (ryegrass; 250 g/ha) | Plant response rating (0 to 100), Sugar beet (sugar beet; Rate 4 g/ha) | Plant response rating, Wild buckwheat (wild buckwheat; 62 g/ha)
8: Plant response rating, Giant foxtail (giant foxtail; Rate 200 g/ha, PREEMERGENCE) | Plant response rating, Lambsquarter (lambsquarters [2]; PREEMERGENCE, Rate 50 g/ha)
60: Plant response rating Ryegrass (ryegrass; 62 g/ha)
50: Plant response rating Barley Igri (barley [4]; 62 g/ha) | Plant response rating, Chickweed (chickweed; 62 g/ha) | Plant response rating (0 to 100), Lambsquarters (lambsquarters [5]; Rate 4 g/ha) | Plant response rating, Soybean (soybean [6]; 62 g/ha) | Plant response rating, Soybean (soybean [6]; 250 g/ha) | Plant response rating (0 to 100), Wild buckwheat (wild buckwheat; Rate 4 g/ha)
0: Plant response rating, Barley (barley [1]; PREEMERGENCE, Rate 50 g/ha) | Plant response rating, Blackgrass (blackgrass; PREEMERGENCE, Rate 50 g/ha) | Plant response rating, Blackgrass (blackgrass; Rate 200 g/ha, PREEMERGENCE) | Plant response rating, Cheatgrass (cheatgrass; PREEMERGENCE, Rate 50 g/ha) | Plant response rating, Rape (rape; PREEMERGENCE, Rate 50 g/ha) | Plant response rating, Soybean (soybean [3]; PREEMERGENCE, Rate 50 g/ha) | Plant response rating, Nutsedge (purple nutsedge; PREEMERGENCE, Rate 50 g/ha) | Plant response rating, Nutsedge (purple nutsedge; Rate 200 g/ha, PREEMERGENCE) | Plant response rating (0 to 100), Soybean (soybean [6]; Rate 4 g/ha)
